Organism: Rattus norvegicus
Test: Open TG-GATES - Regimen: Single
Assay type: toxicity, organism-based, Sprague-Dawley
Design: regimen Single, gender Male, age 6 weeks
Conditions: in vivo, po, 3 mg/kg, route gavage, dose level Middle; for APTT / Bas / Eos / Fbg / Hb / Ht / Lym / MCH / MCHC / MCV / Mono / PT / Plat / RBC / Ret / WBC: tissue Blood; for KIDNEY_L / KIDNEY_R / KIDNEY_TOTAL: tissue Kidney; for LIVER: tissue Liver

Q: Which TERMINAL_BW (3 h) does the source give for `C#C[C@]1(O)CC[C@H]2[C@@H]3CCc4cc(O)ccc4[C@H]3CC[C@@]21C` [ETHINYL ESTRADIOL] here?
A: 198.2 g

Q: And the APTT (3 h)?
A: 15.8 s

Q: What about the Bas (3 h) of the same compound?
A: 0%

Q: What about the Eos (3 h) of the same compound?
A: 1%

Q: And the Fbg (3 h)?
A: 257.8 mg/dL

Q: And the Hb (3 h)?
A: 12.9 g/dL

Q: What about the Ht (3 h) of the same compound?
A: 39.4%

Q: And the Lym (3 h)?
A: 75.8%

Q: And the MCH (3 h)?
A: 21.4 pg

Q: And the MCHC (3 h)?
A: 32.9%

Q: What about the MCV (3 h) of the same compound?
A: 65 fL

Q: What about the Mono (3 h) of the same compound?
A: 3.6%

Q: And the PT (3 h)?
A: 12.2 s

Q: What about the Plat (3 h) of the same compound?
A: 110.2 x10_4/uL

Q: And the RBC (3 h)?
A: 607 x10_4/ul

Q: What about the Ret (3 h) of the same compound?
A: 10.6%

Q: What about the WBC (3 h) of the same compound?
A: 86.9 x10_2/uL

Q: What about the KIDNEY_L (3 h) of the same compound?
A: 0.8 g

Q: And the KIDNEY_R (3 h)?
A: 0.8 g

Q: What about the KIDNEY_TOTAL (3 h) of the same compound?
A: 1.7 g

Q: And the LIVER (3 h)?
A: 8.5 g

Q: What about the ALP (3 h, tissue Plasma) of the same compound?
A: 1631.6 IU/L

Q: And the ALT (3 h, tissue Plasma)?
A: 47.8 IU/L

Q: And the AST (3 h, tissue Plasma)?
A: 80.2 IU/L

Q: And the BUN (3 h, tissue Plasma)?
A: 10.2 mg/dL

Q: And the CRE (3 h, tissue Plasma)?
A: 0.2 mg/dL

Q: And the Cl (3 h, tissue Plasma)?
A: 106.8 meq/L

Q: And the GLC (3 h, tissue Plasma)?
A: 183.4 mg/dL

Q: And the IP (3 h, tissue Plasma)?
A: 9.2 mg/dL

Q: And the K (3 h, tissue Plasma)?
A: 3.8 meq/L

Q: And the LDH (3 h, tissue Plasma)?
A: 49.2 IU/L

Q: And the PL (3 h, tissue Plasma)?
A: 142.6 mg/dL

Q: And the RALB (3 h, tissue Plasma)?
A: 2.5 g/dL

Q: What about the TBIL (3 h, tissue Plasma) of the same compound?
A: 0.038 mg/dL

Q: What about the TC (3 h, tissue Plasma) of the same compound?
A: 75.4 mg/dL

Q: And the TP (3 h, tissue Plasma)?
A: 5.4 g/dL

Q: And the gamma-GTP (3 h, tissue Plasma)?
A: 1.2 IU/L

Q: What about the TERMINAL_BW (6 h) of the same compound?
A: 195.3 g

Q: What about the APTT (6 h) of the same compound?
A: 14.7 s

Q: And the Bas (6 h)?
A: 0.2%

Q: What about the Eos (6 h) of the same compound?
A: 0.8%

Q: What about the Fbg (6 h) of the same compound?
A: 292.8 mg/dL

Q: And the Hb (6 h)?
A: 13 g/dL

Q: What about the Ht (6 h) of the same compound?
A: 38.9%

Q: What about the Lym (6 h) of the same compound?
A: 69.4%

Q: What about the MCH (6 h) of the same compound?
A: 21.9 pg

Q: What about the MCHC (6 h) of the same compound?
A: 33.4%

Q: And the MCV (6 h)?
A: 65.5 fL

Q: And the PT (6 h)?
A: 12.2 s

Q: What about the Plat (6 h) of the same compound?
A: 115.2 x10_4/uL

Q: And the RBC (6 h)?
A: 594.2 x10_4/ul

Q: And the Ret (6 h)?
A: 9.8%

Q: What about the WBC (6 h) of the same compound?
A: 98.2 x10_2/uL

Q: And the KIDNEY_L (6 h)?
A: 0.9 g

Q: And the KIDNEY_R (6 h)?
A: 0.9 g

Q: What about the KIDNEY_TOTAL (6 h) of the same compound?
A: 1.7 g

Q: And the LIVER (6 h)?
A: 8.1 g

Q: What about the ALP (6 h, tissue Plasma) of the same compound?
A: 1993.6 IU/L

Q: And the ALT (6 h, tissue Plasma)?
A: 54.6 IU/L

Q: What about the AST (6 h, tissue Plasma) of the same compound?
A: 106.2 IU/L

Q: What about the BUN (6 h, tissue Plasma) of the same compound?
A: 6.6 mg/dL

Q: What about the CRE (6 h, tissue Plasma) of the same compound?
A: 0.2 mg/dL

Q: And the Ca (6 h, tissue Plasma)?
A: 10.6 mg/dL

Q: And the Cl (6 h, tissue Plasma)?
A: 110 meq/L

Q: And the DBIL (6 h, tissue Plasma)?
A: 0.012 mg/dL

Q: What about the IP (6 h, tissue Plasma) of the same compound?
A: 10.4 mg/dL

Q: And the LDH (6 h, tissue Plasma)?
A: 44.6 IU/L

Q: And the Na (6 h, tissue Plasma)?
A: 144.4 meq/L

Q: What about the PL (6 h, tissue Plasma) of the same compound?
A: 106.4 mg/dL

Q: What about the RALB (6 h, tissue Plasma) of the same compound?
A: 2.5 g/dL

Q: What about the TBIL (6 h, tissue Plasma) of the same compound?
A: 0.038 mg/dL

Q: What about the TC (6 h, tissue Plasma) of the same compound?
A: 51.8 mg/dL

Q: And the TP (6 h, tissue Plasma)?
A: 5.4 g/dL

Q: And the gamma-GTP (6 h, tissue Plasma)?
A: 1.2 IU/L

Q: And the TERMINAL_BW (9 h)?
A: 196.1 g

Q: And the APTT (9 h)?
A: 15.7 s

Q: What about the Bas (9 h) of the same compound?
A: 0%

Q: What about the Eos (9 h) of the same compound?
A: 1%

Q: What about the Fbg (9 h) of the same compound?
A: 261.6 mg/dL

Q: What about the Hb (9 h) of the same compound?
A: 12.8 g/dL

Q: What about the Ht (9 h) of the same compound?
A: 37.6%

Q: And the Lym (9 h)?
A: 72%

Q: And the MCH (9 h)?
A: 22.3 pg

Q: And the MCHC (9 h)?
A: 33.9%

Q: And the MCV (9 h)?
A: 65.8 fL

Q: And the Mono (9 h)?
A: 3%

Q: And the PT (9 h)?
A: 12.7 s

Q: What about the Plat (9 h) of the same compound?
A: 117.1 x10_4/uL

Q: And the RBC (9 h)?
A: 572.4 x10_4/ul

Q: And the Ret (9 h)?
A: 10.2%

Q: And the WBC (9 h)?
A: 81.1 x10_2/uL

Q: And the KIDNEY_L (9 h)?
A: 0.8 g

Q: What about the KIDNEY_R (9 h) of the same compound?
A: 0.8 g

Q: And the KIDNEY_TOTAL (9 h)?
A: 1.7 g

Q: And the LIVER (9 h)?
A: 7.6 g

Q: What about the ALP (9 h, tissue Plasma) of the same compound?
A: 1530.6 IU/L

Q: And the ALT (9 h, tissue Plasma)?
A: 36.4 IU/L

Q: What about the AST (9 h, tissue Plasma) of the same compound?
A: 72 IU/L

Q: And the BUN (9 h, tissue Plasma)?
A: 9 mg/dL

Q: And the CRE (9 h, tissue Plasma)?
A: 0.2 mg/dL

Q: What about the Ca (9 h, tissue Plasma) of the same compound?
A: 10.4 mg/dL

Q: And the Cl (9 h, tissue Plasma)?
A: 109.2 meq/L

Q: What about the DBIL (9 h, tissue Plasma) of the same compound?
A: 0.012 mg/dL

Q: What about the IP (9 h, tissue Plasma) of the same compound?
A: 10.4 mg/dL

Q: What about the K (9 h, tissue Plasma) of the same compound?
A: 3.7 meq/L

Q: What about the LDH (9 h, tissue Plasma) of the same compound?
A: 39.6 IU/L

Q: And the Na (9 h, tissue Plasma)?
A: 145.4 meq/L

Q: What about the PL (9 h, tissue Plasma) of the same compound?
A: 95.4 mg/dL

Q: And the RALB (9 h, tissue Plasma)?
A: 2.6 g/dL

Q: And the TBIL (9 h, tissue Plasma)?
A: 0.048 mg/dL

Q: What about the TC (9 h, tissue Plasma) of the same compound?
A: 45.4 mg/dL

Q: What about the TP (9 h, tissue Plasma) of the same compound?
A: 5.3 g/dL

Q: And the gamma-GTP (9 h, tissue Plasma)?
A: 1 IU/L

Q: What about the TERMINAL_BW (24 h) of the same compound?
A: 200 g

Q: What about the APTT (24 h) of the same compound?
A: 18.1 s

Q: What about the Bas (24 h) of the same compound?
A: 0%

Q: And the Eos (24 h)?
A: 1%

Q: What about the Fbg (24 h) of the same compound?
A: 220.8 mg/dL

Q: What about the Ht (24 h) of the same compound?
A: 39%

Q: And the Lym (24 h)?
A: 77.8%

Q: What about the MCH (24 h) of the same compound?
A: 22 pg

Q: What about the MCHC (24 h) of the same compound?
A: 34%

Q: What about the MCV (24 h) of the same compound?
A: 64.6 fL

Q: What about the Mono (24 h) of the same compound?
A: 4%

Q: And the PT (24 h)?
A: 13.4 s

Q: What about the Plat (24 h) of the same compound?
A: 110.4 x10_4/uL

Q: And the RBC (24 h)?
A: 604.4 x10_4/ul

Q: What about the Ret (24 h) of the same compound?
A: 8.1%

Q: What about the WBC (24 h) of the same compound?
A: 92.7 x10_2/uL

Q: What about the KIDNEY_L (24 h) of the same compound?
A: 0.9 g

Q: And the KIDNEY_R (24 h)?
A: 0.9 g

Q: What about the KIDNEY_TOTAL (24 h) of the same compound?
A: 1.8 g

Q: What about the LIVER (24 h) of the same compound?
A: 9.6 g

Q: And the ALP (24 h, tissue Plasma)?
A: 2004.2 IU/L

Q: And the ALT (24 h, tissue Plasma)?
A: 43 IU/L

Q: And the AST (24 h, tissue Plasma)?
A: 70.6 IU/L

Q: And the BUN (24 h, tissue Plasma)?
A: 10.8 mg/dL

Q: And the CRE (24 h, tissue Plasma)?
A: 0.2 mg/dL

Q: What about the Ca (24 h, tissue Plasma) of the same compound?
A: 10.8 mg/dL

Q: And the Cl (24 h, tissue Plasma)?
A: 106.4 meq/L

Q: What about the DBIL (24 h, tissue Plasma) of the same compound?
A: 0.024 mg/dL

Q: What about the IP (24 h, tissue Plasma) of the same compound?
A: 7 mg/dL

Q: And the K (24 h, tissue Plasma)?
A: 4.3 meq/L

Q: What about the LDH (24 h, tissue Plasma) of the same compound?
A: 62.8 IU/L

Q: What about the PL (24 h, tissue Plasma) of the same compound?
A: 106.4 mg/dL

Q: What about the RALB (24 h, tissue Plasma) of the same compound?
A: 2.5 g/dL

Q: What about the TBIL (24 h, tissue Plasma) of the same compound?
A: 0.042 mg/dL

Q: What about the TC (24 h, tissue Plasma) of the same compound?
A: 39 mg/dL

Q: And the TP (24 h, tissue Plasma)?
A: 5.3 g/dL

From ChEMBL document CHEMBL3885861, “Open TG-GATES”
